For 63 sequences, target mRNA inhibition results are on record in the OligoGym collection.

The data set deals with HSD17B13. The following applies: ASO, HepaRG.

After the bases stand the sugars from the 5' end (letter, count) and the backbone: PS all phosphorothioate, else s phosphorothioate and o phosphodiester by linkage. Methylation of C is not given here. e = 2'-O-(2-methoxyethyl) (MOE); k = constrained ethyl (cEt); d = 2'-deoxy (DNA); m = 2'-O-methyl

Regarding “TTGAACAGTCTTAAAC (sugars kkdddddddddkekek, PS)”, the target mRNA inhibition (1 µM) turned out to be 37%.

TAGCAAAACACTTGCT (sugars k3 d10 k3, PS) had a target mRNA inhibition (1 µM) of 21%.

Regarding ACTACAAGAGGTTATT (sugars k3 d10 k3, PS), the target mRNA inhibition (1 µM) amounted to 46%.

AGAGAGCGATAGATCT (sugars k3 d10 k3, PS) showed a target mRNA inhibition (1 µM) of 15%.

The sequence “GATGCTCCATAATAAT (sugars k3 d9 k3 e1, PS)” registered a target mRNA inhibition (1 µM) of 15%.

CGCAACAGTTTAGATT (sugars k3 d10 k3, PS): the target mRNA inhibition (1 µM) was 57%.

Sequence CTATTATGCACTCTAT (sugars k3 d10 k3, PS) had a target mRNA inhibition (1 µM) of 32%.

For the setting “1 µM”, CACTAAAGGTTTCTGT (sugars k3 d10 k3, PS) showed a target mRNA inhibition of 56%.

Turning to CAGCATATTCATTTGG (sugars k3 d10 k3, PS), the target mRNA inhibition (1 µM) came to 49%.

Regarding “GTTGCACCGTTTTGGG (sugars k3 d1 m1 d8 k3, PS)”, the target mRNA inhibition (1 µM) was 38%.

TAATACATTAGCAAGC (sugars k3 d10 k3, PS): the target mRNA inhibition (1 µM) was 33%.

As to CTACAGAGGAGTTTGC (sugars k3 d10 k3, PS), the target mRNA inhibition (1 µM) turned out to be 27%.

Turning to GTGTTAGCTTTAATTT (sugars k3 d10 k3, PS), the target mRNA inhibition (1 µM) amounted to 48%.

For “GCAGTTATTAGAAGTC (sugars kkdddddddddkekek, PS)”, the target mRNA inhibition (1 µM) was found to be 68%.

As for TCTTAAGGATCATTGC (sugars k3 d10 k3, PS), where the note is “1 µM”, the target mRNA inhibition turned out to be 0%.

As to ATTTATTTGCTGGTCC (sugars k3 d10 k3, PS), the target mRNA inhibition (1 µM) amounted to 47%.

For the setting “1 µM”, “ATGAAGTTAGTATAGT (sugars kkdddddddddkekek, PS)” returned a target mRNA inhibition of 34%.

On to ACTAATTTAGTCAACT (sugars k3 d10 k3, PS), for which the target mRNA inhibition (1 µM) came out at 18%.

The sequence GATTGGAATGCTACTT (sugars k3 d10 k3, PS) returned a target mRNA inhibition (1 µM) of 58%.

For the setting “1 µM”, AATAGCCATGTAGCTA (sugars k3 d10 k3, PS) gave a target mRNA inhibition of 28%.

GCTAAACCCTGGAGCA (sugars k3 d10 k3, PS) had a target mRNA inhibition (1 µM) of 5%.

Consider CCAACGCAACAGTTTA (sugars k3 d10 k3, PS), for which, where the note is “1 µM”, the target mRNA inhibition turned out to be 77%.

On to TATTAGAAGTCAGCCC (sugars k3 d10 k3, PS), for which the target mRNA inhibition (1 µM) turned out to be 27%.

Consider “AGTCTTAAACCTTCCC (sugars k3 d9 k3 e1, PS)”, for which, under “1 µM”, the target mRNA inhibition turned out to be 61%.

Where the note is “1 µM”, TTGGTGGACTTCAGAG (sugars k3 d10 k3, PS) registered a target mRNA inhibition of 8%.

AGTTCTGATGTCAGAC (sugars k3 d10 k3, PS) came in with a target mRNA inhibition (1 µM) of 40%.

Take “GTGCATCTTAAGATAC (sugars kkdddddddddkekek, PS)”: the target mRNA inhibition (1 µM) worked out at 20%.

In the case of CCTCAAATGAGGCGGC (sugars k3 d10 k3, PS), the target mRNA inhibition (1 µM) turned out to be 47%.

As to “GATTGGAATGCTACTT (sugars kkkddddkddddkkke, PS)”, where the note is “1 µM”, the target mRNA inhibition was 59%.

Consider “GGTGGTAACGGTGATC (sugars k3 d9 k3 e1, PS)”, for which the target mRNA inhibition (1 µM) was 47%.

AAAGTTCATTCGAATT (sugars k3 d10 k3, PS) registered a target mRNA inhibition (1 µM) of 63%.

Regarding CCCTTTATGTCTTTGG (sugars k3 d10 k3, PS), where the note is “1 µM”, the target mRNA inhibition was found to be 35%.

For the sequence CTACTTTCAAACCTTG (sugars k3 d10 k3, PS), where the note is “1 µM”, the target mRNA inhibition stood at 57%.

The sequence CCAATATAATCCAAAG (sugars k3 d10 k3, PS) returned a target mRNA inhibition (1 µM) of 28%.

Regarding GCTTAGTGTAGAATTG (sugars k3 d10 k3, PS), the target mRNA inhibition (1 µM) was 16%.

On to CCTTACTAAGGAAATT (sugars k3 d10 k3, PS), for which the target mRNA inhibition (1 µM) is 28%.

Where the note is “1 µM”, GAAGTATGTGAACTCC (sugars k3 d10 k3, PS) came in with a target mRNA inhibition of 56%.

On to ATCATATGCTAAGTGC (sugars k3 d10 k3, PS), for which the target mRNA inhibition reads like this: (0.02 µM) 0%; (0.078 µM) 11%; (0.313 µM) 48%; (1 µM) 73%; (1.25 µM) 71%; (5 µM) 82%.

With “ATTCTGTGGCATGGCT (sugars kkdddddddddkekek, PS)”, the target mRNA inhibition (1 µM) worked out at 55%.

In turn, “ACAATATGGGATGAGG (sugars k3 d9 k3 e1, PS)” showed a target mRNA inhibition (0.02 µM) of 0%; a target mRNA inhibition (0.078 µM) of 0%; a target mRNA inhibition (0.313 µM) of 0%; a target mRNA inhibition (1 µM) of 76%; a target mRNA inhibition (1.25 µM) of 39%; a target mRNA inhibition (5 µM) of 55%.

Sequence “GAAGTTAGTATAGTTA (sugars kkdddddddddkekek, PS)” registered a target mRNA inhibition (1 µM) of 56%.

On to CTGCTGAAACTTGATC (sugars k3 d10 k3, PS), for which the target mRNA inhibition (1 µM) was determined as 50%.

Sequence GAGTTATTGTAGGGAT (sugars k3 d10 k3, PS) showed a target mRNA inhibition (1 µM) of 69%.

In turn, “CTTTGAGACTCTTGTT (sugars kkdddddddddkekek, PS)” registered a target mRNA inhibition (1 µM) of 42%.

With “TTGAACAGTCTTAAAC (sugars k3 d1 m1 d8 k3, PS)”, where the note is “1 µM”, the target mRNA inhibition stood at 11%.

With GAGAATTGTTTAGTTC (sugars k3 d10 k3, PS), the target mRNA inhibition (1 µM) came out at 47%.

The sequence GTCCAGAAGTATGTGA (sugars k3 d10 k3, PS) had a target mRNA inhibition (1 µM) of 9%.

TGAATAGCAAGCCAAC (sugars k3 d10 k3, PS) had a target mRNA inhibition (1 µM) of 4%.

For the setting “1 µM”, GTAAACGACTCTGTAA (sugars k3 d10 k3, PS) came in with a target mRNA inhibition of 8%.

TACTTGAACAGTCTTA (sugars k3 d10 k3, PS): the target mRNA inhibition (1 µM) came out at 48%.

For the sequence “GTTTTTAAGAGGCATG (sugars kkdddddddddkekek, PS)”, the target mRNA inhibition (0.02 µM) was determined as 15%; the target mRNA inhibition (0.078 µM) was 13%; the target mRNA inhibition (0.313 µM) was 12%; the target mRNA inhibition (1 µM) turned out to be 79%; the target mRNA inhibition (1.25 µM) was 61%; the target mRNA inhibition (5 µM) is 71%.

In the case of CTTGACTAAGGAGCTA (sugars k3 d10 k3, PS), the target mRNA inhibition (1 µM) was determined as 24%.

On to CGCACACTGAAGCCAC (sugars k3 d10 k3, PS), for which, for the setting “1 µM”, the target mRNA inhibition is 56%.

Sequence CCTAAACAAACACTAT (sugars k3 d10 k3, PS) yielded a target mRNA inhibition (1 µM) of 8%.

As for “TGCTGCTAGTGCCAAA (sugars k3 d1 m1 d8 k3, PS)”, the target mRNA inhibition (1 µM) came out at 50%.

For GAATAGTCTTCAGCAA (sugars k3 d10 k3, PS), the target mRNA inhibition (1 µM) amounted to 51%.

As to GGTAAGCCCCATGCCA (sugars k3 d10 k3, PS), the target mRNA inhibition (1 µM) was found to be 38%.

Take “ACTTGATCTCTTAGCT (sugars k3 d9 k3 e1, PS)”: the target mRNA inhibition (1 µM) came out at 59%.

In the case of TTAAGCAGAATTGTGA (sugars k3 d10 k3, PS), for the setting “1 µM”, the target mRNA inhibition is 7%.

TGATATACGATGGAAC (sugars k3 d10 k3, PS) gave a target mRNA inhibition (1 µM) of 13%.

In turn, GATGAGAGTCTTTCTT (sugars k3 d10 k3, PS) had a target mRNA inhibition (1 µM) of 26%.

In the case of AGTATGACAACTGGAG (sugars k3 d10 k3, PS), the target mRNA inhibition (1 µM) came out at 15%.

For the sequence “ATGTUTATGTAAGCAC (sugars k3 d1 m1 d8 k3, PS)”, the target mRNA inhibition (1 µM) worked out at 45%.
